In test [1] the target is Prothrombin (Homo sapiens, UniProt P00734). Briefly: Inhibition of thrombin. The conditions noted are these: read-out: Ki app.
Test [2] concerns the target Plasminogen (Homo sapiens, UniProt P00747). As to the kind of experiment: Inhibition of plasmin. The conditions noted are these: read-out: Ki app.
In test [3] the target is Tryptase beta-1 (Homo sapiens, UniProt Q15661). As to the kind of experiment: Inhibition of beta tryptase. As to conditions: read-out: Ki app.
The target of test [4] is Trypsin (Homo sapiens, UniProt P07477+P07478+P35030). As to the kind of experiment: Inhibition of trypsin. It is filed as protein assay.

Plasminogen, sequence (P00747 97-580 limits assumed): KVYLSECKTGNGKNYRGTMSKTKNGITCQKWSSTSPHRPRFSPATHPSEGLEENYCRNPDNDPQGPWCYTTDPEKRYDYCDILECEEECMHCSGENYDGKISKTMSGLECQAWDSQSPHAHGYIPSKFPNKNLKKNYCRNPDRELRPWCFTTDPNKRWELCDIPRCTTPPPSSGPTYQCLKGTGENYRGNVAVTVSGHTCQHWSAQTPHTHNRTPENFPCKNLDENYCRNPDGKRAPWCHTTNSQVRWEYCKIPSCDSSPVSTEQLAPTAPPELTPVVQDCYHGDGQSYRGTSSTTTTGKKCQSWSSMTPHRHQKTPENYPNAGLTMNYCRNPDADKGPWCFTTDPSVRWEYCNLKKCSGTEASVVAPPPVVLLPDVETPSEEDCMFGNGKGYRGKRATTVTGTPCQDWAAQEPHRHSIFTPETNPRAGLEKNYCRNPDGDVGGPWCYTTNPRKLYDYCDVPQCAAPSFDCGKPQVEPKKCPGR
Plasminogen, sequence (P00747 581-810 limits assumed): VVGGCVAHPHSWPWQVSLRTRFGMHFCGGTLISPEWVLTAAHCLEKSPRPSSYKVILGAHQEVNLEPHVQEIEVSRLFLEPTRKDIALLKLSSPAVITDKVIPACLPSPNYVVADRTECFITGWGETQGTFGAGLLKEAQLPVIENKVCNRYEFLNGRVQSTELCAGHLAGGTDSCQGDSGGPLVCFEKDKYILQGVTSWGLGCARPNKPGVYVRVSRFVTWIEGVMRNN
Tryptase beta-1, sequence (Q15661 whole entry): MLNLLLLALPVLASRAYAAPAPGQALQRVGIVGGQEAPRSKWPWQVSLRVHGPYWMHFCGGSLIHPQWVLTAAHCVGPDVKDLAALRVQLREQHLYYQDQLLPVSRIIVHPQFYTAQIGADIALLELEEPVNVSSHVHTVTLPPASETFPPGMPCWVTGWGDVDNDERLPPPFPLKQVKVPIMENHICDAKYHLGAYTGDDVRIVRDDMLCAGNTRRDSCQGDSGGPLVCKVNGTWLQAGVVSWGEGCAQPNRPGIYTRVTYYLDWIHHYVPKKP

Regarding `NCCCC[C@@H](NC(=O)[C@H](CC(N)=O)NC(=O)CCOCCOCCOCCOCCNC(=O)CCCC[C@@H]1SC[C@@H]2NC(=O)N[C@@H]21)P(=O)(Oc1ccccc1)Oc1ccccc1`, the Ki was greater than 100000 nM in test [1], 4030 nM in test [2] and 2500 nM in test [3]. Besides, the Ki app in test [4] is 57300 nM.
In the case of `NCCCC[C@@H](NC(=O)[C@@H]1CCCN1C(=O)CCOCCOCCOCCOCCNC(=O)CCCC[C@@H]1SC[C@@H]2NC(=O)N[C@@H]21)P(=O)(Oc1ccccc1)Oc1ccccc1`, the Ki in test [1] came out at 1070 nM; in test [2], 2900 nM; in test [3], 6200 nM. Moreover, the Ki app in test [4] was 570 nM.

The values above are taken from ChEMBL document CHEMBL1147717, “Development of activity-based probes for trypsin-family serine proteases” (Bioorg Med Chem Lett, 2006).
